# Measurements reported in paper PMC13233288, “Spider venom peptides Ht1a and Gg1a are toxic to honeybee parasite Varroa destructor by topical application” (npj Drug Discovery, 2026).
# Entries after “also recorded” stand apart in the source; their conditions may differ. No end group written: not given here.
# Experiments:
# hNaV1.2/NaV1.7 = test: FLIPR Ca2+ fluorescence, veratridine-stimulated SH-SY5Y cells; assay type: cell-based, human; conditions: 10 µM, added 5 min prior to veratridine (50 µM)
# Method: (§1) To further test the selectivity of sHt1a and sGg1a, we examined their activity on hNaV1.2/NaV1.7 and hCaV2.2 channels, as well as the hα3β2/4 nicotinic acetylcholine receptor (nAchR), that are endogenously expressed in the neuroblastoma cell line SH-SY5Y using a high-throughput fluorescent assay as previously described. In brief, SH-SY5Y cells were seeded at a density of 40,000 cells/well in black-walled imaging plates (Corning, Lowell, MA, USA), then incubated for 48 h at 37 °C in a 5% humidified CO2 incubator. On the day of the assay, cells were loaded with Calcium 4 No-wash dye (Molecular Devices) by reconstituting the lyophilised dye in physiological salt solution (PSS in mM: 140 NaCl, 11.5 glucose, 5.9 KCl, 1.4 MgCl2, 1.2 NaH2PO4, 5 NaHCO3, 1.8 CaCl2, 10 HEPES, pH 7.4). Cells were incubated with the dye for 30 min at 37 °C in a 5% humidified CO2 incubator. Gg1a and Ht1a (10 µM) were added 5 min prior to stimulation with either veratridine (50 µM, hNaV1.2/NaV1.7 activator), nicotine (30 µM, hα3β2/4 nAchR activator) or KCl/CaCl2 (90 mM/5 mM, CaV1.3/2.2 activator) Fluorescent responses were recorded using a FLIPR^Penta fluorescent plate reader (Molecular Devices) with excitation at 470–495 nm and emission at 515–575 nm.
# [1] = system: hα3β2/4 nicotinic acetylcholine receptor (nAchR); test: FLIPR Ca2+ fluorescence, nicotine-stimulated SH-SY5Y cells; assay type: cell-based, human; conditions: 10 µM, added 5 min prior to nicotine (30 µM)
# Method: as §1
# hNaV1.5 = test: Automated whole-cell patch clamp, hNaV1.5 + β1 in HEK 293 cells; assay type: cell-based, human; conditions: 3 μM, 50 ms pulse to −20 mV from −90 mV, ECS with 0.1% BSA, at least 2 min
# Method: To examine for off-target activity on mammalian ion channels and receptors, we first tested the activity of sHt1a and Gg1a against human NaV channels. Whole-cell patch-clamp recordings were performed on Human Embryonic Kidney (HEK) 293 cells stably expressing human NaV1.4 or NaV1.5 in conjunction with the β1 subunit (SB Drug Discovery, Glasgow, United Kingdom) using a QPatch II automated electrophysiology platform (Sophion Bioscience, Ballerup, Denmark). Whole-cell currents were filtered at 8 kHz and acquired at 25 kHz. The linear leak was corrected by P/4 subtraction (leak potential −90 mV, leak sweep amplitude 10%). Series resistance across recorded cells ranged between 5 and 10 MΩ. The extracellular solution (ECS) consisted of (in mM): 145 NaCl, 4 KCl, 2 CaCl2, 1 MgCl2, 10 HEPES, and 10 glucose, adjusted to pH 7.4 with NaOH and to 305 mOsm/L with sucrose. The intracellular solution (ICS) consisted of (in mM): 140 CsF, 1 EGTA, 5 CsOH, 10 HEPES, and 10 NaCl, adjusted to pH 7.3 with CsOH and 320 mOsm/L with sucrose. Currents were elicited from a holding potential of −90 mV delivered with a 50 ms depolarising pulse to −20 mV every 20 s (0.05 Hz). Peptides were diluted in ECS containing 0.1% BSA and applied to cells for at least 2 min at the concentrations stated. Peak currents were normalised to the buffer control.
# V. destructor mites = test: Topical application of synthetic peptides and oxalic acid to V. destructor mites; assay type: in vivo, Varroa destructor; conditions: 0.48 μg/mite in 0.5% Silwet (v/v); for earliest onset of mortality: 2-hourly recording between 0 and 48 h; for survival/mortality of V. destructor: n = 5 mites per group, up to 48 h, vs 0.5% Silwet control, two-way ANOVA, Dunnett
# Method: An outline of the project discovery pipeline is presented in Supplementary Fig. 1. To identify varroacidal venom peptides, we screened venoms for activity against V. destructor by topical application. Topical tests were performed in several stages. First, whole venom was tested to determine mortality for V. destructor. Hit venoms were then subjected to several fractionation steps to isolate the active compounds. For the initial venom screen, a panel of 50 arthropod venoms (Table 1) were topically applied to V. destructor mites. Venoms were dissolved in 90% acetonitrile (v/v), and a 10 μg venom aliquot was applied per mite (n = 5 mites per venom). The dorsal plate of V. destructor mites (average mass 0.38 mg) was fixed to adhesive tape (ScotchTM 666 3 M; 19 × 32.9 mm, double sided) on microscope slides (ground edges 90° frosted end, 76 × 26 mm). A Nanoject II (Automatic Injector with Glass Capillaries, Drummond Cat.No. 3-000-205 A) was used for topical application of venom and control (90% acetonitrile) solutions. To accelerate solvent evaporation, the total volume of 483 nL was applied in seven aliquots of 69 nL each to the ventral plate of the mites between the posterior pair of legs. Each drop was allowed to dry before applying the next one, with the entire application procedure taking up to 1 h. Mite mortality was determined at various time intervals up to 48 h after the treatment using an Olympus stereomicroscope (SZX10/SZX2 Series). Initially, each mite was examined for movements of the legs, and immobile mites were stimulated with the tip of a wooden toothpick. Detection of static electricity by the mites, a few millimetres before the actual contact with the toothpick, was usually sufficient to trigger movement in mites that were still alive. […] At the later stage of the project, the slides with mites were placed into a self-constructed automated video monitoring system (using a USB camera) that employs an algorithm in OpenCV to subtract images from subsequent frames enabling the detection of changes in pixel intensity due to movements, for example of the extremities. Leg movements were stimulated with an air current applied over the mites at the time of image acquisition to determine mite mortality. The percentage of mite mortality for each venom was calculated at 2, 6 and 24 h, and adjusted by correcting for the mortality of the corresponding control group receiving only 90% acetonitrile.
# The same procedure initially used for identifying varroacidal venoms was used for testing the topical activity of sHt1a and sGg1a. The peptides were dissolved in 0.5% Silwet L-77 (v/v), a silicone-based surfactant that is commonly used as a spreading agent for foliar sprays. 0.48 μg of peptide was topically applied to each mite, with n = 5 mites per treatment group. The activity of the sHt1a was confirmed using three cohorts of n = 5 mites, whereas the activity of sGg1a was confirmed using four cohorts of n = 5 mites. As a negative control, an equal volume of 0.5% Silwet (v/v) was topically applied (four cohorts of n = 5 mites), and 3% oxalic acid, a known varroacide used in commercial products[10] was used as positive control (eight cohorts of n = 5 mites). Mite mortality was recorded at 2-hourly intervals between 0 and 48 h after the treatment. For statistical analysis, mite survival data were plotted in Prism 10.0 (GraphPad Software, CA, USA), then a two-way ANOVA followed by Dunnett’s multiple comparisons test was performed, comparing the peptide and oxalic acid treatment against the respective 0.5% Silwet (v/v) control group data.
Substance,effect on neuronal NaV channels (hNaV1.2/NaV1.7),effect on neuronal NaV channels (hNaV1.2/NaV1.7; listed as sHt1a),inhibition of nicotine-mediated Ca2+ influx (α3 nAChRs) [1],inhibition of nicotine-mediated Ca2+ influx (α3 nAChRs) ([1]; listed as sHt1a),effect on hNaV1.5 currents (hNaV1.5),effect on hNaV1.5 currents (hNaV1.5; listed as sHt1a),earliest onset of mortality (V. destructor mites) [h],survival/mortality of V. destructor (V. destructor mites),survival/mortality of V. destructor (V. destructor mites; listed as sHt1a),effect on neuronal NaV channels (hNaV1.2/NaV1.7; listed as sGg1a),effect on hNaV1.5 currents (hNaV1.5; listed as sGg1a),survival/mortality of V. destructor (V. destructor mites; listed as sGg1a)
"KYCAPRKAVCNTPADCCDKSSRCAYPNYGLGYYLDSEFFGKRKICSWRL (also: bicyclic or more (positions not given here)) [Ht1a, μ-gradutoxin-Ht1a]",inactive,did not significantly affect,partially blocked,partial inhibition,inactive,did not significantly affect,34,induced topical mortality; also recorded: reduced varroa mite but not honeybee survival; also recorded: lethal to varroa mites,significantly reduced the survival; also recorded: significantly reduced V. destructor survival,–,–,–
U1-macrothelitoxin-Gg1a,inactive,–,inactive,–,inactive,–,16,induced topical mortality; also recorded: reduced varroa mite but not honeybee survival; also recorded: lethal to varroa mites,–,did not significantly affect,did not significantly affect,significantly reduced the survival; also recorded: significantly reduced V. destructor survival
